# Reference: patent US20100311107A1, “Ultra-High Throughput Screening of Natural Products” (priority 2004, published 2010)
# Where two headings read alike, the source gives them in different places.
# How the values were obtained:
# Type in all cases: cell-based, Escherichia coli
# [1] = system: E. coli screening strain CM435; set-up: Minimal inhibitory concentrations (MIC90) CM435: unit not given here; conditions: for Minimal inhibitory concentrations (MIC90) CM435: Table 13, MHB medium
# [2] = system: E. coli screening strain CM242; set-up: unit not given here; conditions: second Table 12, MHB medium
# Description: (§1) The level of drug resistance of these screening strains (both intermediates and finals) was evaluated by standard MIC assay in MHB liquid medium and the result of Strain CM242 is summarized in Table 12.
# [3] = system: E. coli screening strain DR1234; set-up: unit not given here; conditions: Table 7, MHB medium
# Description: (§2) The screening strain, DR1234, was established after all desired drug-resistant genes listed in Table 5 had been delivered into the parent E. coli strain, MG1655, by methods described above. Its level of drug resistance was analyzed by the standard minimum inhibitory concentration (MIC) assay in MHB liquid medium (Chantot, et al., 1986, “Antibacterial activity of roxithromycin: a laboratory evaluation,” J. Antibiot, 39(5):660-8) and the result was summarized in Table 7.
# [4] = system: E. coli screening strain DR1212; set-up: unit not given here; conditions: Table 11, MHB medium
# Description: (§3) The level of drug-resistance of screening strain DR1212 was analyzed by standard MIC assay in MHB liquid medium and the result was summarized in Table 11. Similar to screening strains, DR1234 and CM166, DR1212 is also resistant to drugs whose resistant genes have been introduced.
# E. coli MG1655 = system: E. coli MG1655; set-up: unit not given here
# Description: as §2
# (§4) The level of drug resistance of CM166 was estimated by MIC assay carried out in MHB liquid medium and the results were summarized in Table 9. CM166 is resistant to antibacterial agents whose resistant genes have been incorporated into the strain, but not to other antibacterial drugs whose resistant genes are not incorporated.
# as §3, §1
# (§5) The level of drug resistance of screening strains CM400 and CM435 was evaluated by standard MIC assay in MHB liquid medium and the results are summarized in Table 13. According to the MIC results, CM435 is hypersensitive to Bleomycin, Daunorucibin, Coumermycin A1 and Erythromycin. Screening strain CM435 and others, which are hypersensitive to certain types of antimicrobial agents, are advantageous in detecting bioactive compounds with low concentration in the screening system.
# [5] = system: E. coli screening strain CM166; set-up: unit not given here; conditions: Table 9, MHB medium
# Description: as §4
# screening strain DR1212 = test: macrodroplet screening assay for DNA-interacting agents; conditions: DNA excluded from the bioassay medium
# Description: (§6) After the period of incubation as described above, macrodroplets can be screened for biological activities by a unique technique termed macrodroplet screening assay. The biological activities of compounds secreted by the encapsulated microorganisms and contained within the macrodroplet beads can be detected by, for example, cell growth inhibition. In general, screening strains should first be cultured to a certain cell density (proper OD reads as described in section 5.3.3.) in liquid medium and then plated in semi-solid medium matrix (0.8%), which overlays the macrodroplet beads (see FIG. 1, item 140. Item 145 of FIG. 1 represents the top layer of semi-solid medium matrix containing a selected screening strain). After being incubated overnight, the screening strain can grow throughout the matrix, except in areas where macrodroplet beads release metabolites, which prevent the growth of the screening strain. The inhibition of cell growth may result in zones of inhibition around these beads (see item 155, FIG. 1), which usually can be detected visually.
# Screening for DNA-interacting agents was carried out using the standard macrodroplet screening method previously described, with the exception that DNA was excluded from the bioassay medium. Following overnight incubation at 35° C., macrodroplet beads from zones of inhibition are recovered and processed via the normal route as discussed in section 5.2.2.4.
# Alternatively, a second round screening was performed to increase specificity of the screening. Microorganisms obtained as the outcome of the screening described above were subject to a second round of screening using screening strains having a lacZ reporter gene controlled by promoters responsive to DNA damage, such as CM191 and CM242 (see section 5.3.1.d. The details of screening procedure are discussed in both section 5.2.3. Microorganisms from macrodroplets producing zones of activity were purified using methods previously described and fermented in larger volumes. Their species specificities were determined by sequencing their 16S rRNA genes and the active compounds were purified and further characterized. Several active compounds were selected by DR1212, such as chrysomycin, streptonigrin, daunomycin and chromomycin, which are all known DNA damaging agents.
# [6] = system: E. coli screening strain CM400; set-up: unit not given here; conditions: Table 13, MHB medium
# Description: as §5
# screening strain CM166 = test: macrodroplet screening assay, zones of inhibition; conditions: soil actinomycetes in macrodroplets, DNA and biotin in medium
# Description: as §6
# Next, microorganisms from the soil samples collected as described above were encapsulated to form macrodroplets populated by a single microorganism in each bead, according to the pre-determined cfu count of the particular soil extract. In this process, an aliquot of the soil bacteria suspension was diluted in 10% glycerol to generate an inoculum of the required density. This adjusted suspension was then mixed with nutrient medium, counterselective agents (see above) and 1.4% sodium alginate and the resultant mixture processed through an Inotech Encapsulator® Research device, to produce gel-beads (called macrodroplets) by the formation of droplets of liquid from a fluid stream. The droplets solidified into gel-beads as they came into contact with a calcium chloride bath, which also contained nutrient medium and counterselective agents. After a defined hardening time the macrodroplets were washed to remove excess calcium chloride and to stop the hardening process. Smidsrod and Skjak-Braek, 1990, “Alginate as immobilization matrix for cells,” Trends Biotechnol. 8(3):71-8. Cured macrodroplets containing microorganisms were then spread in dishes from which excess fluid was removed. The macrodroplets subsequently allowed growth of the target organisms and production of secondary metabolites such as anti-microbial agents. Macrodroplets were spread evenly over the plate using a sterile spreader (5,000 particles per plate) and incubated at 28-30° C. for 7 days to allow the growth of the microorganism within, and the production of secondary metabolites.
# CM166 (see section 5.3.1.b for details) was used as the test strain in this example. Two to three single colonies of CM166 were inoculated into a shake flask containing 10 ml of MHB medium with 40 μg/ml Tmp and 200 μg/ml Amp. After the cells were cultured at 35° C. for 2-3 hours, an OD reading was performed. If the OD reading was above 0.1 (equivalent to 2×10^8 cfu), the screening strain was ready for dilution. Otherwise, the strain needed to be incubated for longer time until the OD read reached >0.1. Medium for the macrodroplet assay (in 1 L Duran, add 10.5 g MHB power, 4 g agar (0.8%), and 1 g DNA) was autoclaved and cooled to ˜45° C., and ampicillin (25 mg/ml), tetracycline (10 mg/ml), daptomycin (20 mg/ml) and biotin (0.1 μg/ml) were added, together with 2.5 ml screening strain. […]
# [7] = system: lacZ reporter gene of the screening strains (CM191, CM242); test: S-Gal staining assay on solid medium; conditions: screening strains on solid medium, drug-impregnated disks, PETG to suppress background
# Description: The screening strains' responses to DNA damaging agents were further confirmed by S-Gal staining assay. When mitomycin C and streptonigrin (both were well-known DNA damaging drugs) and S-Gal, the indicator, were applied to the screening strains growing on solid medium, blue-colored rings were visible around colonies in drug-impregnated disks. […] Actinomycin D was an exception. CM242 was not sensitive to this drug, although it disrupts DNA structure. PETG (2-phenyethyl B-D-thiogalactoside, Sigma, St Louis Mo.), was used in this experiment to suppress unspecific background activity.
# [8] = system: PrecN′-'lacZ fusion gene in CM242; test: β-galactosidase activity in the presence of DNA damaging drugs
# Description: (§7) The responses to DNA damaging agents of the screening strains described above were measured by analyzing the β-galactosidase activity in the presence of DNA damaging drugs. This method is described in detail in “A Short Course in Bacterial Genetics” 1992, ed. Miller, Cold Spring Harbor Press, pp. 72-74. The PsulA′-'lacZ fusion gene in CM191 was induced 15 fold compared to a non-induced control two hours after the addition of mitomycin C (0.5 μg/ml). In the case of CM242 which contains the PrecN′-'lacZ fusion gene, a more than 40-fold induction had been observed. Such induction was also drug-specific. In an experiment when phosphomycin (at 10 μg/ml) was used, there was no induction of the β-galactosidase activity.
# [9] = system: PsulA′-'lacZ fusion gene in CM191; test: as above; conditions: CM191, two hours after addition, 0.5 μg/ml
# Description: as §7
Molecule,Minimal inhibitory concentrations (MIC90) CM435 [1],Minimal inhibitory concentrations (MIC90) CM242 [2],Minimal inhibitory concentrations (MIC90) DR1234 [3],Minimal inhibitory concentrations (MIC90) DR1212 [4],"Minimal inhibitory concentrations (MIC90) MG1655 (E. coli MG1655; Table 13, MHB medium)",Minimal inhibitory concentrations (MIC90) CM166 [5],active compound selected by DR1212 (screening strain DR1212),Minimal inhibitory concentrations (MIC90) CM400 [6],bioactive compound of actinomycete strains selected with CM166 (screening strain CM166),also measured
COc1cccc2c1C(=O)c1c(O)c3c(c(O)c1C2=O)C[C@@](O)(C(C)=O)C[C@@H]3O[C@H]1C[C@H](N)[C@H](O)[C@H](C)O1 [Daunorubicin],8,100,>400,12.5,>256,>400,active,>256,–,"sensitivity of CM435 according to the MIC results ([1]; MHB liquid medium): hypersensitive; Minimal inhibitory concentrations (MIC90) MG1655 (E. coli MG1655; Table 7, MHB medium): 200; Minimal inhibitory concentrations (MIC90) MG1655 (E. coli MG1655; Table 9, MHB medium): 200; Minimal inhibitory concentrations (MIC90) MG1655 (E. coli MG1655; Table 11, MHB medium): 200; Minimal inhibitory concentrations (MIC90) MG1655 (E. coli MG1655; second Table 12, MHB medium): 200"
CCC(=O)Nc1c2sscc-2n(C)c1=O [aureothricin],–,–,–,–,–,–,–,–,bioactive,–
chrysomycin,–,–,–,–,–,–,active,–,–,–
CO[C@@]12[C@H](COC(N)=O)C3=C(C(=O)C(C)=C(N)C3=O)N1C[C@@H]1N[C@@H]12 [Mitomycin C],–,3.2,3.2,<0.4,–,3.2,–,–,–,"Minimal inhibitory concentrations (MIC90) MG1655 (E. coli MG1655): 0.8; lacZ reporter gene expression (S-Gal, blue-colored rings) [7]: induced; induction of PrecN′-'lacZ fusion gene ([8]; CM242, 0.5 μg/ml): more than 40 fold; induction of PsulA′-'lacZ fusion gene compared to a non-induced control [9]: 15 fold"
albomycin,–,–,–,–,–,–,–,–,bioactive,–
streptavidin,–,–,–,–,–,–,–,–,bioactive,–
COC1=C(N)C(=O)c2nc(-c3nc(C(=O)O)c(C)c(-c4ccc(OC)c(OC)c4O)c3N)ccc2C1=O [Streptonigrin],0.5,3.2,3.2,≦0.2,8,1.6,active,8,–,"Minimal inhibitory concentrations (MIC90) MG1655 (E. coli MG1655; Table 7, MHB medium): 3.2; Minimal inhibitory concentrations (MIC90) MG1655 (E. coli MG1655; Table 9, MHB medium): 3.2; Minimal inhibitory concentrations (MIC90) MG1655 (E. coli MG1655; Table 11, MHB medium): 3.2; Minimal inhibitory concentrations (MIC90) MG1655 (E. coli MG1655; second Table 12, MHB medium): 3.2; lacZ reporter gene expression (S-Gal, blue-colored rings) [7]: induced"
C[C@@H]1O[C@@H]1P(=O)(O)O [Phosphomycin],64,–,–,–,32,–,–,8,–,"induction of the β-galactosidase activity ([8]; at 10 μg/ml, strain not specified): no induction"
CC(=O)Nc1c2sscc-2n(C)c1=O [thiolutin],–,–,–,–,–,–,–,–,bioactive,–
COC1C(O)CC(OC2CC(Oc3cc4cc5c(c(O)c4c(O)c3C)C(=O)[C@@H](OC3CC(OC4CC(OC6CC(C)(O)C(OC(C)=O)C(C)O6)C(O)C(C)O4)C(O)C(C)O3)[C@H]([C@H](OC)C(=O)[C@@H](O)[C@@H](C)O)C5)OC(C)C2OC(C)=O)OC1C (some centres unmarked) [chromomycin],–,–,–,–,–,–,active,–,–,–
